Results: patent US20200325177A1, “METHODS OF MAKING STREPTOGRAMIN COMPOSITIONS AND THE USE THEREOF” (THE REGENTS OF THE UNIVERSITY OF CALIFORNIA, priority 2017, published 2020)
≈ marks a conversion by molar mass, not a printed value. Like-named read-outs stand apart in the source and are kept apart here.

Assays:
Format in all cases: cell-based
[1] = system: S. aureus Linezolid-resistant; cfr; assay: MIC, Gram-positive bacteria: S. aureus Linezolid-resistant; cfr; conditions: Staphylococcus aureus, column 9, read-out: Minimal Inhibitory Concentration (MIC) S. aureus Linezolid-resistant
H. influenzae ATCC 49247 = assay: MIC, Gram-negative bacteria: H. influenzae ATCC 49247; conditions: Haemophilus influenzae, ATCC49247, read-out: Minimal Inhibitory Concentration (MIC) H. influenzae ATCC 49247
E. faecium VRE; vanA = assay: MIC, Gram-positive bacteria: E. faecium VRE; vanA; conditions: Enterococcus faecium, column 3, read-out: Minimal Inhibitory Concentration (MIC) E. faecium VRE
[2] = system: S. aureus Vat A streptogramin; assay: MIC, Gram-positive bacteria: S. aureus Vat A streptogramin; conditions: Staphylococcus aureus; Gram-positive; column 5; read-out: Minimal Inhibitory Concentration (MIC) S. aureus Vat A streptogramin
Gram-Negative Organisms = assay: microbe, parasite or virus in culture
E. faecium ATCC 35667 = assay: MIC, Gram-positive bacteria: E. faecium ATCC 35667; conditions: Enterococcus faecium, ATCC35667, column 2, read-out: Minimal Inhibitory Concentration (MIC) E. faecium ATCC 35667
[3] = system: P. aeruginosa MDR clinical isolate; assay: MIC, Gram-negative bacteria: P. aeruginosa MDR clinical isolate; conditions: Pseudomonas aeruginosa, read-out: Minimal Inhibitory Concentration (MIC) P. aeruginosa MDR clinical isolate
S. aureus = assay: MIC, Gram-positive bacteria: S. aureus (strains not named); conditions: Staphylococcus aureus, read-out: Minimal Inhibitory Concentration (MIC) S. aureus
P. aeruginosa ATCC 27853 = assay: MIC, Gram-negative bacteria: P. aeruginosa ATCC 27853; conditions: Pseudomonas aeruginosa, ATCC27853, read-out: Minimal Inhibitory Concentration (MIC) P. aeruginosa ATCC 27853
S. pneumoniae = assay: MIC, Gram-positive bacteria: S. pneumoniae; conditions: Streptococcus pneumoniae, column 10, read-out: Minimal Inhibitory Concentration (MIC) S. pneumoniae
E. faecalis = assay: MIC, Gram-positive bacteria: E. faecalis; conditions: Enterococcus faecalis, column 1, read-out: Minimal Inhibitory Concentration (MIC) E. faecalis
[4] = system: K. pneumoniae multidrug-resistant; assay: MIC, Gram-negative bacteria: K. pneumoniae multidrug-resistant; conditions: Klebsiella pneumoniae, read-out: Minimal Inhibitory Concentration (MIC) K. pneumoniae multidrug-resistant
[5] = Acinetobacter baumannii, ATCC19606, read-out: Minimal Inhibitory Concentration (MIC), A. baumannii ATCC 19606
[6] = Escherichia coli, ATCC25922, read-out: Minimal Inhibitory Concentration (MIC), E. coli ATCC 25922
[7] = Escherichia coli, read-out: Minimal Inhibitory Concentration (MIC), E. coli BAS2006, OMP C, OMP F
[8] = Escherichia coli, read-out: Minimal Inhibitory Concentration (MIC), E. coli olC efflux defective
[9] = Escherichia coli, read-out: Minimal Inhibitory Concentration (MIC), E. coli permeability mutant BAS1314, IMP4213ZAB::TN10
[10] = Escherichia coli, read-out: Minimal Inhibitory Concentration (MIC), E. coli ΔompC768, KanR insert
[11] = Klebsiella pneumoniae, ATCC43816, read-out: Minimal Inhibitory Concentration (MIC), K. pneumoniae ATCC 43816
[12] = first unnamed S. aureus column (c4)
[13] = fourth unnamed S. aureus column (c8)
[14] = second unnamed S. aureus column (c6)
[15] = third unnamed S. aureus column (c7)

Structure (SMILES)	MIC [1] [µg/mL]	MIC (H. influenzae ATCC 49247) [µg/mL]	MIC (E. faecium VRE; vanA) [µg/mL]	MIC [2] [µg/mL]	MIC (Gram-Negative Organisms; [5]) [µg/mL]	MIC (Gram-Negative Organisms; [6]) [µg/mL]	MIC (Gram-Negative Organisms; [7]) [µg/mL]	MIC (Gram-Negative Organisms; [8]) [µg/mL]	MIC (Gram-Negative Organisms; [9]) [µg/mL]	MIC (Gram-Negative Organisms; [11]) [µg/mL]	MIC (E. faecium ATCC 35667) [µg/mL]	MIC [3] [µg/mL]	MIC (S. aureus; [12]) [µg/mL]	MIC (S. aureus; [13]) [µg/mL]	MIC (S. aureus; [14]) [µg/mL]	MIC (S. aureus; [15]) [µg/mL]	MIC (P. aeruginosa ATCC 27853) [µg/mL]	MIC (S. pneumoniae) [µg/mL]	MIC (E. faecalis) [µg/mL]	MIC [4] [µg/mL]	other results
CC1=C\[C@@H](O)CC(=O)Cc2nc(co2)C(=O)N2CCC[C@@H]2C(=O)O[C@H]([C@@H](C)CN2CCOCC2)[C@H](C)/C=C/C(=O)NC\C=C\1 [SA0110161]	> 64	> 64	> 64	> 64	> 64	> 64	> 64	> 64	> 64	> 64	> 64	> 64	> 64	> 64	> 64	> 64	> 64	> 64	> 64	> 64	MIC (Gram-Negative Organisms; [10]): > 64 µg/mL
CC1=C\[C@@H](O)CC(=O)Cc2nc(co2)C(=O)N2CCC[C@@H]2C(=O)O[C@H]([C@@H](C)CN2CCN(C)CC2)[C@H](C)/C=C/C(=O)NC\C=C\1 [SA0110241]	> 64	> 64	> 64	> 64	> 64	> 64	> 64	> 64	> 64	> 64	> 64	> 64	> 64	> 64	> 64	> 64	> 64	> 64	> 64	> 64	MIC (Gram-Negative Organisms; [10]): > 64 µg/mL
CC1=C\[C@@H](O)CC(=O)Cc2nc(co2)C(=O)N2CCC[C@@H]2C(=O)O[C@H]([C@@H](C)COC(=O)Nc2ccc3ccccc3n2)[C@H](C)/C=C/C(=O)NC\C=C\1 [SA0110117]	> 64	> 64	32 (≈ 44.8 µM)	> 64	> 64	> 64	8 (≈ 11.2 µM)	2 (≈ 2.8 µM)	4 (≈ 5.6 µM)	> 64	16 (≈ 22.4 µM)	> 64	16 (≈ 22.4 µM)	16 (≈ 22.4 µM)	16 (≈ 22.4 µM)	32 (≈ 44.8 µM)	> 64	4 (≈ 5.6 µM)	> 64	> 64	
CC1=C\[C@@H](O)CC(=O)Cc2nc(co2)C(=O)N2CCC[C@@H]2C(=O)O[C@H]([C@H](C)COC(=O)Nc2csc(C)n2)[C@H](C)/C=C/C(=O)NC\C=C\1 [SA0110214]	> 64	16 (≈ 23.4 µM)	64 (≈ 93.6 µM)	> 64	> 64	> 64	64 (≈ 93.6 µM)	8 (≈ 11.7 µM)	8 (≈ 11.7 µM)	> 64	32 (≈ 46.8 µM)	> 64	64 (≈ 93.6 µM)	64 (≈ 93.6 µM)	64 (≈ 93.6 µM)	> 64	> 64	32 (≈ 46.8 µM)	> 64	> 64	MIC (Gram-Negative Organisms; [10]): > 64 µg/mL
CC1=C\[C@@H](O)CC(=O)Cc2nc(co2)C(=O)N2CCC[C@@H]2C(=O)O[C@H]([C@H](C)COC(=O)Nc2ccc(C)cc2)[C@H](C)/C=C/C(=O)NC\C=C\1 [SA0110184]	> 64	16 (≈ 23.6 µM)	16 (≈ 23.6 µM)	> 64	> 64	> 64	> 64	4 (≈ 5.91 µM)	2 (≈ 2.96 µM)	> 64	16 (≈ 23.6 µM)	> 64	16 (≈ 23.6 µM)	16 (≈ 23.6 µM)	16 (≈ 23.6 µM)	32 (≈ 47.3 µM)	> 64	32 (≈ 47.3 µM)	> 64	> 64	MIC (Gram-Negative Organisms; [10]): > 64 µg/mL
CC1=C\[C@@H](O)CC(=O)Cc2nc(co2)C(=O)N2CCC[C@@H]2C(=O)O[C@H]([C@@H](C)COC(=O)Nc2ccc(Br)nc2)[C@H](C)/C=C/C(=O)NC\C=C\1 [SA0110082]	> 64	64 (≈ 86.2 µM)	> 64	> 64	> 64	> 64	32 (≈ 43.1 µM)	4 (≈ 5.39 µM)	16 (≈ 21.5 µM)	> 64	32 (≈ 43.1 µM)	> 64	> 64	32 (≈ 43.1 µM)	> 64	> 64	> 64	8 (≈ 10.8 µM)	> 64	> 64	
